Tests used:
[1] = tested on: histone H3 acetylation in Oli-Neu cells; assay: Western blot of histone acetylation in Oli-Neu oligodendrocyte progenitor cell line; type: cell-based, mouse; details: oligodendrocyte-derived cell lines, one day treatment
Procedure: FIG. 4 illustrates the effects of dose-dependent 4c treatment (one day) of immortialized oligodendrocyte progenitors (Oli-Neu) on histone H3 acetylation and α-tubulin assessed by Western blotting using specific antibodies.
Oli-Neu cell line derived from mouse oligodendrocyte progenitors immortalized with the Neu antigen were grown on poly-ornithine-coated culture dishes and maintained proliferating in growth medium ODM plus 1% horse serum as previously described (He et al., 2007). Oli-Neu cells were induced to differentiation in ODM+0.5 mM dybutiryl-cAMP (Sigma) and treated together with CM000149 at indicated concentrations for one day. The cells treated with DMSO were used as the control. Total proteins from cultured cells were extracted using lysis buffer containing 50 mM Hepes (pH 7.4), 150 mM NaCl, 1% NP-40, 1 mM dithiothreitol (DTT), 1 mM EDTA, 0.01% phenylmethylsulfonyl fluoride (PMSF), 1 mM aprotinin and 1 mM leupeptin. Equal amount (40 μg) of proteins were loaded on 12% SDS-PAGE for separation and transferred onto PVDF (Millipore) membrane using a buffer containing 25 mM Tris base, pH 8.3, 192 mM glycine, 20% methanol for 1 hour at 100 V at 4° C. […]

MOG-induced EAE = MOG-induced EAE in mice, 7-day treatment started after onset of clinical symptoms; type: in vivo, mouse; details: treatment from day 18 for 7 days, mice with score 2.5-3.0; after 3-4 days of treatment
Procedure: FIG. 14 illustrates seven-day 4c treatment accelerates recovery from MOG-induced EAE even if started AFTER the onset of clinical symptoms.
This study was conducted to determine whether the effectiveness of 4c can be observed in animals even if started once the disease has progressed to peak clinical symptoms. For this reason, MOG-dependent EAE in mice was induced and the animals scored daily. On day 18 post-immunization mice with a score of 2.5-3.0 (paralysis of one leg and weakness of the other to paralysis of both hindlimbs) were selected and divided into two groups receiving either 4c or vehicle treatment for 7 days.

[2] = tested on: p53-induced p21 luciferase activity in U2OS cells; assay: p53-dependent p21 luciferase activity in U2OS cells under doxorubicin treatment; type: cell-based, human
Procedure: The luciferase activity was normalized to renilla luciferase as a control. The IC50 was calculated using PRISM software.
The activity of the pyrido-indole compounds (FIG. 10) were evaluated for their ability to inhibit p53 activation in human osteosarcoma (U2OS) cells. The p53 activation was induced by DNA damage upon treatment of doxorubicin, and effects of compound treatment were measured by p53-dependent p21 luciferase activity. U2OS Cells were transfected with p21 luciferase (1 μg) and renilla luciferase (100 ng) vectors in six-well plate format using Fugene 6 (Roche). 1.1 μg of vector was incubated with […] of Fugene 6 reagent for 30 min. After 3-4 hours of transfection, cell were treated with compounds overnight, and then exposed to 300 ng of doxorubicin for the next 24 hours. In these experiments, DMSO, transfected cells with empty vectors, and cells without doxorubicin were used as controls. The DMSO concentration was maintained at 0.01%. Transfected cells with doxorubicin treatment were used as a positive control. The luciferase activity was estimated by following the manufacturer's instruction (Promega) in a luminometer. Both active and passive lysis of cells yielded consistent results. The inhibitory activity (IC50) of a small molecule on p21 luciferase activity was obtained from the average of three biological replicates using PRISM software.

[3] = tested on: CBP occupancy at promoters (Lmnb1 transcription start site); assay: Chromatin immunoprecipitation (ChIP) of CBP and H3K18ac at gene promoters; type: cell-based; details: 10 nM, one day
Procedure: FIG. 9 illustrates the ChIP analysis of samples isolated from cells cultured as previously described and then precipitated using antibodies specific for CBP, and for H3K18ac. A mock ChIP (No Antibody) was used as negative control. The amount of chromatin recovered at the Lmnb1 transcription start site was measured by qPCR and expressed as percentage of input for each sample. Error bars are s.e.m. of three independent experiments (*p<0.05, **p<0.01 two-tail t test).
Oligodendrocyte progenitors (4×10^6) were crosslinked in 1% formaldehyde, lysed in nuclear lysis buffer (50 mM Tris-HCL (pH 8.0), 10 mM EDTA, 1% SDS, Protease Inhibitors (Roche) and PMSF) and sonicated using a Bioruptor (Diagenode) sonicator to produce chromatin with an average length of 500 base pairs. Chromatin was aliquoted and immunopreciptiated using protein A magnetic beads (Dynabeads-Invitrogen 100.01D) coated with 2 μg of antibodies to CBP (santa cruz sc-369), H3-K9ac (abcam ab4441), H3-K9ac and K14 (millipore 06-599), H3-K18ac (abcam ab1191). A mock immunopreciptitation was set-up as a control (No antibody). Immunoprecipitations were carried out overnight. […]
Quantitative PCR was performed using primers to detect the transcriptional start site of the Lmnb1 promoter; forward 5′-[…] […]

CC(=O)NCCCCn1c2c(c3ccccc31)C(=O)NCC2 [4c, 2,3,4,5-tetrahydro-5-(4′-acetamidobutyl)-1H-pyrido-[4,3-b]indol-1-one]
global histone acetylation [1]: decrease of global histone acetylation in a dose-dependent manner
recovery when treatment started at peak clinical symptoms (MOG-induced EAE): showed signs of recovery
inhibition of p53-induced p21 activation [2]: most potent effect
acetylation of histone H3 at lysine 18 (H3K18ac) at promoters [3]: but not the acetylation of histone H3 at lysine 18 (H3K18ac) was decreased
association of CBP with promoters [3]: decreased

Source: patent publication US10065951B2, “Small molecule transcription modulators of bromodomains” (Icahn School of Medicine at Mount Sinai, priority 2014, dated 2018)
